According to paper PMC11651915, “Small molecule protein assembly modulators with pan-cancer therapeutic efficacy” (Open Biology, 2024):

Experiments:
NL4-3 Rluc HIV = experiment: microbe, parasite or virus in culture; assay type: cell-based; settings: Human immunodeficiency virus 1, NL43, MT2, 96 h, read-out: EC50 against HIV
LNCaP C-33 = experiment: In-house cancer cell viability screen (AlamarBlue); assay type: cell-based; settings: Homo sapiens, LnCAP-C33, 72 h
SU-DHL-10 = experiment: Eurofins OncoPanel (CellTiter-Glo); assay type: cell-based; settings: Homo sapiens, SU-DHL10, 72 h, 3 days
MOLT-4 = experiment: cells; assay type: cell-based; settings: Homo sapiens, NCI-60, 48 h
HOP-62 = experiment: cells; assay type: cell-based; settings: Homo sapiens, NCI-60, 48 h
NCI-H460 = experiment: cells; assay type: cell-based; settings: Homo sapiens, NCI-60, 48 h
HT29 = experiment: cells; assay type: cell-based; settings: Homo sapiens, HT-29, NCI-60, 48 h
M14 = experiment: cells; assay type: cell-based; settings: Homo sapiens, NCI-60, 48 h
IGROV1 = experiment: cells; assay type: cell-based; settings: Homo sapiens, IGROV-1, NCI-60, 48 h
786-0 = experiment: cells; assay type: cell-based; settings: Homo sapiens, NCI-60, 48 h
[1] = system: BB1 patient biopsy derived cell line (benign adenoma); experiment: BB1 and BB5 adenoma versus carcinoma screen (confocal imaging); assay type: cell-based, human; settings: Homo sapiens, 60 h, percent ChromaLive negative
[2] = system: HT-29 colorectal cancer xenograft; experiment: HT-29 xenograft study; assay type: in vivo, mouse; settings: 17 days, PAV-951 3 mg kg^−1 IV, Irinotecan 60 mg kg^−1 IP
Experimental: In the second animal efficacy study, human HT-29 colorectal adenocarcinoma cells were grafted subcutaneously onto mice. After tumour establishment, the animals received treatment with vehicle, 3 mg kg^−1 PAV-951 or 60 mg kg^−1 of a positive control drug Irinotecan. […]. Survival was not assessed as part of the study.
HT-29 cells growing in HBSS medium were suspended in Matrigel. 0.1 ml of the cell suspension containing 5 × 10^6 cells were injected subcutaneously into the left flank region of male, 6–8 week old SCID mice. After tumour establishment, animals were divided randomly into groups of six and treated daily by IV with vehicle daily for 17 days, 3 mg kg^−1 PAV-951 three times per week for 17 days, or treated by IP with 60 mg kg^−1 Irinotecan every 4 days for 14 days. Tumour volume was calculated using the formula: (L × W2)/2 where L is the largest diameter and W is the smallest diameter of the tumour. Statistical analysis was performed using GraphPad Prism (Ver. 5.03). Statistical analysis of tumour growth inhibition between the Control and Treated groups was performed by using ne-way ANOVA followed by Dunnett’s test.

A549 and MRC-5 cells = experiment: Toxicity to A549 cancer line versus non-cancer MRC-5 cells; assay type: cell-based
HL-60(TB) = experiment: cells; settings: Homo sapiens, HL-60, 48 h
SR = experiment: cells; settings: Homo sapiens, 48 h
EKVX = experiment: cells; settings: Homo sapiens, 48 h
HOP-92 = experiment: cells; settings: Homo sapiens, HOP-92, 48 h
NCI-H23 = experiment: cells; settings: Homo sapiens, NCI-H23, 48 h
HCC-2998 = experiment: cells; settings: Homo sapiens, HCC 2998, 48 h
HCT-15 = experiment: cells; settings: Homo sapiens, HCT-15, 48 h
LOX IMVI = experiment: cells; settings: Homo sapiens, 48 h
SK-MEL-2 = experiment: cells; settings: Homo sapiens, SK-MEL-2, 48 h
UACC-62 = experiment: cells; settings: Homo sapiens, UACC-62, 48 h
OVCAR-3 = experiment: cells; settings: Homo sapiens, OVCAR-3, 48 h
OVCAR-5 = experiment: cells; settings: Homo sapiens, OVCAR-5, 48 h
SK-OV-3 = experiment: cells; settings: Homo sapiens, SK-OV-3, 48 h
A498 = experiment: cells; settings: Homo sapiens, A498, 48 h
RXF 393 = experiment: cells; settings: Homo sapiens, RXF 393, 48 h
SN12C = experiment: cells; settings: Homo sapiens, 48 h
TK-10 = experiment: cells; settings: Homo sapiens, TK-10, 48 h
DU-145 = experiment: cells; settings: Homo sapiens, DU-145, 48 h
BT-549 = experiment: cells; settings: Homo sapiens, BT-549, 48 h
MDA-MB-468 = experiment: cells; settings: Homo sapiens, MDA-MB-468, 48 h
MHH-PREB-1 = experiment: Eurofins OncoPanel (CellTiter-Glo); settings: Homo sapiens, MHH-PREB-1, 72 h

CC(C)CCNc1ncnc2cc(N3CCN(c4ccc5c(NCCC(C)C)ncnc5c4)CC3)ccc12 [PAV-951]
EC50 (NL4-3 Rluc HIV): 660 nM | IC50 (LNCaP C-33): 542 nM | IC50 (SU-DHL-10): 231 nM | GI50 (MOLT-4): 223 nM | GI50 (HOP-62): 358 nM | GI50 (NCI-H460): 203 nM | GI50 (HT29): 345 nM | GI50 (M14): 533 nM | GI50 (IGROV1): 287 nM | GI50 (786-0): 339 nM | IC50 [1]: 3350 nM | tumour growth inhibition (TGI) [2]: 52% | toxicity to A549 cancer line compared with non-cancer MRC-5 cells (A549 and MRC-5 cells): selectively toxic to the A549 cancer line | GI50 (HL-60(TB)): 269 nM | GI50 (SR): 51.9 nM | CC50 (SR; read-out: LC50): 1900 nM | GI50 (EKVX): 1750 nM | CC50 (EKVX; read-out: LC50): 6120 nM | GI50 (HOP-92): 1230 nM | CC50 (HOP-92; read-out: LC50): 6220 nM | GI50 (NCI-H23): 1470 nM | CC50 (NCI-H23; read-out: LC50): 5620 nM | GI50 (HCC-2998): 967 nM | CC50 (HCC-2998; read-out: LC50): 5130 nM | GI50 (HCT-15): 173 nM | CC50 (HCT-15; read-out: LC50): 815 nM | GI50 (LOX IMVI): 183 nM | CC50 (LOX IMVI; read-out: LC50): 684 nM | GI50 (SK-MEL-2): 1650 nM | CC50 (SK-MEL-2; read-out: LC50): 5910 nM | GI50 (UACC-62): 1380 nM | CC50 (UACC-62; read-out: LC50): 5610 nM | GI50 (OVCAR-3): 1050 nM | CC50 (OVCAR-3; read-out: LC50): 4790 nM | GI50 (OVCAR-5): 1080 nM | CC50 (OVCAR-5; read-out: LC50): 4830 nM | GI50 (SK-OV-3): 1550 nM | CC50 (SK-OV-3; read-out: LC50): 6340 nM | GI50 (A498): 1860 nM | CC50 (A498; read-out: LC50): 5920 nM | GI50 (RXF 393): 448 nM | GI50 (SN12C): 280 nM | CC50 (SN12C; read-out: LC50): 3410 nM | GI50 (TK-10): 2160 nM | CC50 (TK-10; read-out: LC50): 6140 nM | GI50 (DU-145): 283 nM | CC50 (DU-145; read-out: LC50): 2830 nM | GI50 (BT-549): 1590 nM | CC50 (BT-549; read-out: LC50): 6040 nM | GI50 (MDA-MB-468): 1470 nM | CC50 (MDA-MB-468; read-out: LC50): 5610 nM | IC50 (MHH-PREB-1): 400 nM
